Experimental findings from patent US20230138851A1, “NOVEL ALKYNE DERIVATIVES” (CARNA BIOSCIENCES, INC., priority 2020, published 2023) are described below.

What all share (type): biochemical
One experiment deals with T1, DYRK1A (Homo sapiens, UniProt Q13627).
T1 construct: purchased Carna Biosciences, Inc. 04-130
Put plainly: Inhibition test on activity of DYRK family, mobility shift assay (MSA), DYRK1A. The settings on record: ATP 100 μM, FITC-labeled DYRKtide peptide substrate, room temperature 1 hour; for IC50: read-out: Inhibitory Activity 1a (IC50 against DYRK1A). A digest of the protocol:
(§1)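 FITC-DYRKtide phosphorylation in 20 mM HEPES pH 7.5 with MgCl2; ATP in the substrate mix was 100 μM (DYRK1A), 200 μM (DYRK1B), 40 μM (DYRK2) or 20 μM (DYRK3). Reactions ran 1 h at room temperature; inhibition from P/(P+S) versus blank and DMSO control, IC50 by regression on log concentration.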

In a further experiment the target is T2, DYRK3 (Homo sapiens, UniProt O43781).
T2 construct: purchased Carna Biosciences, Inc. 04-133
T2 sequence (O43781 1-588): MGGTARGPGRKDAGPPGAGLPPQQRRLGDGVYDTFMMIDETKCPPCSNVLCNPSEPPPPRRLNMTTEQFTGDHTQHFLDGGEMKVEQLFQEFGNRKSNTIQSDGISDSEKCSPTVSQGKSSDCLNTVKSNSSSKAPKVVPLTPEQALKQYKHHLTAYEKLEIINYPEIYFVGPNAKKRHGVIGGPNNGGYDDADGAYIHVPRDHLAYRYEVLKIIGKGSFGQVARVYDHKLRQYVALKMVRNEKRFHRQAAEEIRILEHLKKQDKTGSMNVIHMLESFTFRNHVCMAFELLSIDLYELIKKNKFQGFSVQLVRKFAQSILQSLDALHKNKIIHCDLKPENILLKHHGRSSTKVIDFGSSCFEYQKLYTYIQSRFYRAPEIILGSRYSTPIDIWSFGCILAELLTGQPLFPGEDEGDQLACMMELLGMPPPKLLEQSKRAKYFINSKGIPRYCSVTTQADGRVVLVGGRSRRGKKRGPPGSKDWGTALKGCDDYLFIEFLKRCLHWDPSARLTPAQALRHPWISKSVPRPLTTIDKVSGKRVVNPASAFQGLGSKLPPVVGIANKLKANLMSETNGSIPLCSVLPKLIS
Kind of experiment: Inhibition test on activity of DYRK family, mobility shift assay (MSA), DYRK3. Conditions: ATP 20 μM, FITC-labeled DYRKtide peptide substrate, room temperature 1 hour; for IC50: read-out: Inhibitory Activity 3 (IC50 against DYRK3). A digest of the protocol:
as §1

A further experiment concerns the target T3, DYRK2 (Homo sapiens, UniProt Q92630).
T3 construct: purchased Carna Biosciences, Inc. 04-132
T3 sequence (Q92630 1-601): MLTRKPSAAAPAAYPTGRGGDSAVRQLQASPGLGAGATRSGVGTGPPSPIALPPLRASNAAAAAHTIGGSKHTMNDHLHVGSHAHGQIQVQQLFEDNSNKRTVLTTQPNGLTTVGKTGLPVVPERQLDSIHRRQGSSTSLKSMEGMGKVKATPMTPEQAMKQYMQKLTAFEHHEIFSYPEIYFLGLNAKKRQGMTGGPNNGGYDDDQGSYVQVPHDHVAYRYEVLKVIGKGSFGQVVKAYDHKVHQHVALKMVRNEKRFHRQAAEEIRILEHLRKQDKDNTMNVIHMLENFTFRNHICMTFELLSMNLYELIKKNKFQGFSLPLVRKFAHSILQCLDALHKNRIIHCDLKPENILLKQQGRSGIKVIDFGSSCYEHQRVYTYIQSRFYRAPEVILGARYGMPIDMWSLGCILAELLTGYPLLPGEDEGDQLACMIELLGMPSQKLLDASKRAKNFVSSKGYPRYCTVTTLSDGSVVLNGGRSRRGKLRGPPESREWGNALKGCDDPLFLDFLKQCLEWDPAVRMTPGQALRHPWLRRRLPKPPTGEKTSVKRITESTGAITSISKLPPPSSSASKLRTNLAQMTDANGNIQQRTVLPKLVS
Kind of experiment: Inhibition test on activity of DYRK family, mobility shift assay (MSA), DYRK2. Conditions: ATP 40 μM, FITC-labeled DYRKtide peptide substrate, room temperature 1 hour; for IC50: read-out: Inhibitory Activity 2 (IC50 against DYRK2). A digest of the protocol: as §1

With `CC#CC1CNC(=O)N1c1nc2c(ccc3nn(C)cc32)s1` (racemic) [Example 51, (RS)-1-(7-methyl-7H-thiazolo[4,5-e]indazol-2-yl)-5-(prop-1-yn-1-yl)imidazolidin-2-one], the “Inhibitory Activity 1a (IC50 against DYRK1A)” value (“Inhibitory Activity 1a” for short) at DYRK1A was “* * *”. Moreover, the IC50 on DYRK3 and on DYRK2 was 100 to 1000 nM in each case.

For the compound `CC#CC1CNC(=O)N1c1nc2c(ccc3ncccc32)s1` (single isomer, unassigned) [Example 36, 5-(prop-1-yn-1-yl)-1-(thiazolo[4,5-f]quinolin-2-yl)imidazolidin-2-one], on DYRK1A, the “Inhibitory Activity 1a” value is given as “* *”. In addition, the half-inhibitory concentration (IC50) on DYRK3 and on DYRK2 was 100 to 1000 nM throughout.

For the compound `CC#C[C@H]1[C@H]([C@H](C)O)NC(=O)N1c1nc2c3c(ccc2s1)OCC3` [Example 83, (4R,5S)-1-(7,8-dihydrobenzofuro[4,5-d]thiazol-2-yl)-4-((S)-1-hydroxyethyl)-5-(prop-1-yn-1-yl)imidazolidin-2-one], the IC50 was 10 to 100 nM at DYRK1A, at least 1000 nM on DYRK3 and at least 1000 nM on DYRK2.

With `O=C1NCC(C#CCO)N1c1nc2c3c(ccc2s1)OCC3` (racemic) [Example 19, (RS)-1-(7,8-dihydrobenzofuro[4,5-d]thiazol-2-yl)-5-(3-hydroxyprop-1-yn-1-yl)imidazolidin-2-one], the “Inhibitory Activity 1a” value on DYRK1A is listed as “* * *”. The IC50 at DYRK3 and at DYRK2 was 100 to 1000 nM throughout.

For the compound `CC#CC1CNC(=O)N1c1nc2c3c(ccc2s1)OCC(=O)N3C` (racemic) [Example 46, (RS)-9-methyl-2-[2-oxo-5-(prop-1-yn-1-yl)imidazolidin-1-yl]-7H-thiazolo[4′,5′:3,4]benz[1,2-b][1,4]oxazin-8(9H)-one], the “Inhibitory Activity 1a” value at DYRK1A was “* *”. For the same compound, the IC50 at DYRK3 was 100 to 1000 nM; on DYRK2, at least 1000 nM.

As to `CC(C)(O)C#CC1CNC(=O)N1c1nc2c3c(ccc2s1)OCC3` (racemic) [Example 22, (RS)-1-(7,8-dihydrobenzofuro[4,5-d]thiazol-2-yl)-5-(3-hydroxy-3-methylbut-1-yn-1-yl)imidazolidin-2-one], the “Inhibitory Activity 1a” value at DYRK1A is reported as “* *”. Also, the IC50 on DYRK3 and on DYRK2 was at least 1000 nM in each case.

With `CC#C[C@@H]1[C@H](C)NC(=O)N1c1nc2c3c(ccc2s1)OCCO3` [Example 56, (4S,5R)-1-(7,8-dihydro-[1,4]dioxino[2′,3′:5,6]benz[1,2-d]thiazol-2-yl)-4-methyl-5-(prop-1-yn-1-yl)imidazolidin-2-one], the “Inhibitory Activity 1a” value at DYRK1A is “* * *”. For the same compound, the IC50 on DYRK3 and on DYRK2 was 100 to 1000 nM throughout.

As to `CC#C[C@@H]1[C@H](CC)NC(=O)N1c1nc2c3c(ccc2s1)OCC3` (relative stereo) [Example 73, cis-1-(7,8-dihydrobenzofuro[4,5-d]thiazol-2-yl)-4-ethyl-5-(prop-1-yn-1-yl)imidazolidin-2-one], at DYRK1A, the “Inhibitory Activity 1a” value was “* * *”. Moreover, the IC50 at DYRK3 and at DYRK2 was 100 to 1000 nM each time.

Consider `CC#C[C@H]1[C@H](C(C)C)NC(=O)N1c1nc2c3c(ccc2s1)OCC3` [Example 67, (4S,5S)-1-(7,8-dihydrobenzofuro[4,5-d]thiazol-2-yl)-4-isopropyl-5-(prop-1-yn-1-yl)imidazolidin-2-one], for which the IC50 at DYRK1A, at DYRK3 and on DYRK2 was at least 1000 nM throughout.

Consider `CN(C)CC#CC1CNC(=O)N1c1nc2c3c(ccc2s1)OCC3` (racemic) [Example 18, (RS)-1-(7,8-dihydrobenzofuro[4,5-d]thiazol-2-yl)-5-[3-(dimethylamino)prop-1-yn-1-yl]imidazolidin-2-one], for which, on DYRK1A, the “Inhibitory Activity 1a” value is on record as “* *”. Besides, the IC50 on DYRK3 was 100 to 1000 nM; at DYRK2, at least 1000 nM.

For `CC#CC1CNC(=O)N1c1nc2c(ccc3ocnc32)s1` (racemic) [Example 7, (RS)-5-(prop-1-yn-1-yl)-1-(thiazolo[5′,4′:5,6]benzo[1,2-d]oxazole-7-yl)imidazolidin-2-one], the “Inhibitory Activity 1a” value on DYRK1A is “* * *”. The IC50 on DYRK3 and at DYRK2 was at least 1000 nM in each case.

For `CC#C[C@H]1[C@H]([C@@H](C)O)NC(=O)N1c1nc2c3c(ccc2s1)OCC3` [Example 81, (4R,5S)-1-(7,8-dihydrobenzofuro[4,5-d]thiazol-2-yl)-4-((R)-1-hydroxyethyl)-5-(prop-1-yn-1-yl)imidazolidin-2-one], the IC50 was 100 to 1000 nM at DYRK1A, at least 1000 nM at DYRK3 and at least 1000 nM on DYRK2.

With `CC#C[C@H]1[C@H](CO)NC(=O)N1c1nc2c3c(ccc2s1)OCCO3` (single isomer, unassigned) [Example 66, trans-1-(7,8-dihydro-[1,4]dioxino[2′,3′:5,6]benz[1,2-d]thiazol-2-yl)-4-(hydroxymethyl)-5-(prop-1-yn-1-yl)imidazolidin-2-one], the results for the IC50 on DYRK1A, at DYRK3 and at DYRK2 were 100 to 1000 nM, at least 1000 nM and at least 1000 nM, respectively.

As for `C#CC1CNC(=O)N1c1nc2c3c(ccc2s1)OCC3` (racemic) [Example 12, (RS)-1-(7,8-dihydrobenzofuro[4,5-d]thiazol-2-yl)-5-ethynylimidazolidin-2-on], the “Inhibitory Activity 1a” value on DYRK1A is listed as “* * *”. Also, the “Inhibitory Activity 3 (IC50 against DYRK3)” value on DYRK3 is reported as “* *”. In addition, the “Inhibitory Activity 2 (IC50 against DYRK2)” value on DYRK2 is listed as “* *”.

In the case of `CC#CC1CNC(=O)N1c1nc2c(ccc3[nH]ncc32)s1` (racemic) [Example 50, (RS)-5-(prop-1-yn-1-yl)-1-(6H-thiazolo[4,5-e]indazol-2-yl)imidazolidin-2-one], on DYRK1A, the “Inhibitory Activity 1a” value was “* *”. The IC50 on DYRK3 and on DYRK2 was at least 1000 nM throughout.

For `CC#CC1CNC(=O)N1c1nc2c3c(ccc2s1)OCCN3CCOC` (racemic) [Example 42, (RS)-1-[9-(2-methoxyethyl)-8,9-dihydro-7H-thiazolo[4′,5′:3,4]benz[1,2-b][1,4]oxazin-2-yl]-5-(prop-1-yn-1-yl)imidazolidin-2-one], the “Inhibitory Activity 1a” value at DYRK1A was “* * *”. Moreover, the values for the IC50 on DYRK3 and at DYRK2 were 100 to 1000 nM and at least 1000 nM, respectively.

For the compound `CC#C[C@H]1[C@H](C)NC(=O)N1c1nc2c3c(ccc2s1)OCC3` [Example 4, (4S,5S)-1-(7,8-dihydrobenzofuro[4,5-d]thiazol-2-yl)-4-methyl-5-(prop-1-yn-1-yl)imidazolidin-2-one], the IC50 at DYRK1A, at DYRK3 and at DYRK2 was at least 1000 nM each time.

As for `CC#C[C@H]1[C@H](CF)NC(=O)N1c1nc2c3c(ccc2s1)OCC3` (single isomer, unassigned) [Example 79, trans-1-(7,8-dihydrobenzofuro[4,5-d]thiazol-2-yl)-4-(fluoromethyl)-5-(prop-1-yn-1-yl)imidazolidin-2-one], the figures for the IC50 on DYRK1A, at DYRK3 and on DYRK2 were 100 to 1000 nM, at least 1000 nM and at least 1000 nM, respectively.

Regarding `CC#C[C@H]1[C@H](CN(C)C)NC(=O)N1c1nc2c3c(ccc2s1)OCC3` (single isomer, unassigned) [Example 70, trans-1-(7,8-dihydrobenzofuro[4,5-d]thiazol-2-yl)-4-[(dimethylamino)methyl]-5-(prop-1-yn-1-yl)imidazolidin-2-one], the IC50 is 100 to 1000 nM at DYRK1A, at least 1000 nM at DYRK3 and at least 1000 nM on DYRK2.

One may read the IC50 as the midpoint of a concentration-inhibition curve.
